Reference: patent US5232917A, “Methods, compositions, and compounds for allosteric modulation of the GABA receptor by members of the androstane and pregnane series” (priority 1991, dated 1993)

Assays:
[1] = test system: number of light/dark transitions (anxiety); assay: Light/dark transition test; type: in vivo, mice (male N.I.H. Swiss-Webster); conditions: for effect on number of light/dark transitions (words): 3α-OH-DHP 10, 20, 40 mg/kg, 5α-THDOC 20 mg/kg, diazepam 1.0, 5.0, 10, 20 mg/kg, 20 mg/kg
Description: The light/dark transition test (Crawley and Goodwin, 1980) is based on the observation that rodents naturally tend to explore novel environments, but open, brightly lit arenas are aversive to the rodents and inhibit exploratory behavior (Christmas and Maxwell, 1970; File, 1980). […] Similar to the light/dark transition test, the open-field test measures the antagonism between the tendency to explore a novel environment and the tendency to remain still in an aversive environment (brightly lit arena). […] The open-field test provides a simple, non-punished assessment of the potential anxiolytic properties of novel compounds. Finally, 3α-OH-DHP was tested for anxiolytic properties in a Vogel conflict paradigm. The ability of BZs to attenuate the suppression of behavior by punishment in conflict paradigms is well established (Gellar et al., 1962; Vogel et al., 1971).
Male N.I.H. Swiss-Webster mice (Harlan) weighing 15-20 g were used in all experiments. The mice were housed 4/cage in polyethylene cages with sawdust bedding. The colony room was environmentally controlled (22° C.) with a 12 hr. light/dark cycle (0600-1800 hrs.). The mice had free access to food and water. The experiments were run from 0700-1500 hrs. and groups were counterbalanced for time of day effects.
The method used was previously described by Crawley and Goodwin (1980). The apparatus included a large box (26×33×24 cm) connected to a small box (15×22×14 cm) through an opening (5×6 cm). The large box was brightly lit with a standard 100W light bulb, while the small box was kept dark. Following pretreatment with a test drug, mice were placed in the center of the large box and the number of transitions between the large and small boxes was counted for 10 min. […] During the antagonist studies, CGS-8216 was administered 30 min. prior to the test drug.
2-Hydroxypropyl β-cyclodextrin Diazepam and chlordiazepoxide are available from Sigma, Co. (St. Louis, Mo.). CGS-8216 was obtained from Ciba-Geigy (Summit, N.J.). All drugs were dissolved in 20% β-cyclodextrin in water and sonicated overnight. All drugs were administered intraperitoneally in a volume of 100 μL/20 g. CGS-8216 was administered subcutaneously in a volume of 100 μL/20 g.
(§1) The vehicle control data were analyzed across test days using an 1-way analysis of variance (ANOVA). […] The dose-response curves were then analyzed using an 1-way ANOVA, followed by Dunnett's t-test for individual comparisons between doses and control. The open-field and habituated locomotor data were analyzed using ANOVA followed by Dunnett's t-test. […] All data is expressed as the mean±S.E.M.

[2] = Rotorod test; conditions: mouse, in vivo, ip
Description: (§2) Adult male CFI mice (20-30g) were used in these studies. […] Ten to twelve mice were used per dose of test drug. […] Sedative potential was determined by a rotorod test where the number of mice staying on a rotating (6 rpm) rod for ≥1 min. in each of three trials was determined.

[3] = molecular target: T1, estrogen receptor (Bos taurus, UniProt P49884); assay: Inhibition of 3H-estradiol binding to bovine uteral estrogen receptors; conditions: read-out: % of inhibition of 3H-estradiol binding, B, competitor 10^-6 M; 0.25 nM 3H-estradiol
T1 construct: from tissue; host or cells: bovine uterus cytosol
T1 sequence (P49884 1-596): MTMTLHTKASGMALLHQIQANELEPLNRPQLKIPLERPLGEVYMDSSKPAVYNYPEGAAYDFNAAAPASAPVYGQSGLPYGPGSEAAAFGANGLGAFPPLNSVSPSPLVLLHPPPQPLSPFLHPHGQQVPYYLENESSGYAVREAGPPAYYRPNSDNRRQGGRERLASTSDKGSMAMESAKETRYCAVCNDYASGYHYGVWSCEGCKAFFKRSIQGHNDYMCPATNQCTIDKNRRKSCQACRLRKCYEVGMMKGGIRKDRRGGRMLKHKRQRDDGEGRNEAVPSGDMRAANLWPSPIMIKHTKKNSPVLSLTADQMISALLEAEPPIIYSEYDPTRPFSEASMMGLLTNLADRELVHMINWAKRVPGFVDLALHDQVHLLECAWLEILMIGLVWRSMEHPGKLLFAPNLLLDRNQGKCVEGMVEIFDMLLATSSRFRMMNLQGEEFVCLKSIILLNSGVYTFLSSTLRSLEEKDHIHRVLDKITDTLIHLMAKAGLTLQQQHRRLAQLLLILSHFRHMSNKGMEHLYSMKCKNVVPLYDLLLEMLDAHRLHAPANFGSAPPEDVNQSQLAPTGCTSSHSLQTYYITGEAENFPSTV
Description: The hormonal activity of drugs described herein was further studied through testing their potential estrogenic, progestinic, mineralocorticoid and glucocorticoid activities. These activities were analyzed by monitoring the ability of the drugs to inhibit binding of the steroid hormones to their respective hormone receptors.

[4] = test system: sedative potential (rotorod); assay: Rotorod test; conditions: rotorod ED50 vs (+)bicuculline ED50
Description: as §2

[5] = test system: metrazol-induced convulsions; conditions: dissolved in DMSO; Belelli et al., 1989; cited from earlier work
[6] = test system: punished responding; assay: Vogel conflict paradigm (lick suppression); type: in vivo, mice (male N.I.H. Swiss-Webster); conditions: 3α-OH-DHP 20 mg/kg
Description: An Anxio-Monitor (Omnitech Electronics, Columbus, Ohio) was used for measuring lick suppression. The testing chamber consisted of a clear plexiglass box (29 cm×29 cm×23 cm) with a metal drinking tube located 2.5 cm from the floor and extending 2 cm into the box. The shock was applied through the drinking spout and was controlled by the Anxio-Monitor. […] The reinforcer was 0.1M sucrose.
The conflict test procedure described by Vogel et al. (1980) was employed. This procedure is a modification of the original lick suppression test first described by Vogel et al. (1971). After 24 hr. of water deprivation,mice were allowed to explore the test apparatus and drink without punishment for 10 min. or 100 licks. […] Mice were allowed unpunished access to the drinking tube for 20 licks, thereafter, every 10th lick was punished with 0.1 mA shock. The test duration was 5 min.
as §1

[7] = test system: picrotoxin-induced convulsions; conditions: dissolved in DMSO; Belelli et al., 1989; cited from earlier work
[8] = test system: maximal electroshock seizure; conditions: dissolved in DMSO; Belelli et al., 1989; cited from earlier work
[9] = test system: BZ receptor; assay: [3H]flunitrazepam binding to the BZ receptor in rat hippocampal homogenates; conditions: pentobarbital 1.0 mM; 0.25 nM [3H]FLU; no GABA; FIG. 3
[10] = test system: sedative potential (rotorod); conditions: dissolved in DMSO; Belelli et al., 1989; cited from earlier work
[11] = test system: (+)bicuculline-induced seizures; conditions: dissolved in DMSO; Belelli et al., 1989; cited from earlier work

C[C@]12CC[C@@H](O)C[C@@H]1CC[C@@H]1[C@@H]2CC[C@]2(C)[C@@H](C(=O)CO)CC[C@@H]12 [Example 5α-THDOC, 3α,21-dihydroxy-5α-pregnan-20-one]
effect on number of light/dark transitions (words) [1]: significantly different from vehicle | number of transitions in 10 min ([1]; 5α-THDOC 10 mg/kg i.p., vehicle 35.2±2.0, p<0.06, FIG. 10): 49.4±2.0 transitions | effect on number of light/dark transitions at the highest dose ([1]; 5α-THDOC 40 mg/kg, p<0.05 vs vehicle): significant decrease | TD50 [2]: 22.9 mg/kg | inhibition at 1 µM [3]: 4%

CC(=O)[C@H]1CC[C@H]2[C@@H]3CC[C@H]4C[C@H](O)CC[C@]4(C)[C@H]3CC[C@]12C [Example 3α-OH-DHP, 3α-hydroxy-5α-pregnan-20-one]
number of transitions in 10 min (maximal effect) ([1]; 3α-OH-DHP 20 mg/kg i.p., FIG. 9): 70.2±4.3 transitions | effect on number of light/dark transitions (words) [1]: significant (p<0.01) increase | effect on number of light/dark transitions (words) ([1]; listed as α-OH-DHP): number of transitions was increased | sedative liability at anticonvulsant doses [4]: low | ED50 MTZ (metrazol) [5]: 18.8 ± 1.1 mg/kg | increase in number of shocks received vs controls ([6]; 5 min session, p=0.01, FIG. 14): 235.6% | number of shocks received ([6]; controls […]): 13.9±2.1 | ED50 PICRO (picrotoxin) [7]: 31.7 ± 1.1 mg/kg | ED50 MES (maximal electroshock) [8]: > 300 mg/kg | interaction with pentobarbital in the enhancement of [3H]FLU binding [9]: does not interact | ED50 RR (Rotorod) [10]: 40 to 100 mg/kg | ED50 BIC (bicuculline) [11]: 4.1 ± 1.7 mg/kg
